These results are taken from ChEMBL document CHEMBL1817568, “Novel hybrids of fluconazole and furanones: design, synthesis and antifungal activity” (2011).

≈ marks a conversion by molar mass, not a printed value. Calls of active or inactive are those of the source. The calls are words filed in the database; no cut-off is given here.

The subject of the first assay is Candida albicans. Kind of assay: Antifungal activity against Candida albicans ATCC 24433 by broth dilution method. It counts as functional.
With `O=C1OCC(c2ccccc2)=C1c1ccc(OCC(O)(Cn2cncn2)c2ccc(F)cc2F)cc1` (racemic), the MIC50 was determined as 0.5 µg/mL (≈ 1.02 µM).
On the same count and under the same terms, then `COc1ccc(C2=C(c3ccc(OCC(O)(Cn4cncn4)c4ccc(F)cc4F)cc3)C(=O)OC2)cc1` (racemic), with 1 µg/mL (≈ 1.92 µM).
The same measure, in the same setting: under `Cc1ccc(C2=C(c3ccc(OCC(O)(Cn4cncn4)c4ccc(F)cc4F)cc3)C(=O)OC2)cc1` (racemic) stands 0.5 µg/mL (≈ 0.993 µM).
Turning to `O=C1OCC(c2ccc(F)cc2)=C1c1ccc(OCC(O)(Cn2cncn2)c2ccc(F)cc2F)cc1` (racemic), the MIC50 is 0.25 µg/mL (≈ 0.493 µM). Compared with the last molecule, the MIC50 is about 2-fold lower.
Still for that read-out and setting: under `O=C1OCC(c2ccc(F)cc2F)=C1c1ccc(OCC(O)(Cn2cncn2)c2ccc(F)cc2F)cc1` (racemic) stands 0.5 µg/mL (≈ 0.952 µM); under `O=C1OCC(c2ccc(Br)cc2)=C1c1ccc(OCC(O)(Cn2cncn2)c2ccc(F)cc2F)cc1` (racemic), 0.5 µg/mL (≈ 0.88 µM); under `COc1cc(C2=C(c3ccc(Br)cc3)COC2=O)ccc1OCC(O)(Cn1cncn1)c1ccc(F)cc1F` (racemic), 1 µg/mL (≈ 1.67 µM).
Still for that read-out and setting: then `O=Cc1ccc(OCC(O)(Cn2cncn2)c2ccc(F)cc2F)cc1` (racemic), with 0.5 µg/mL (≈ 1.39 µM).

Another assay concerns Nakaseomyces glabratus. Kind of assay: Antifungal activity against Candida glabrata ATCC 90030 by broth dilution method. It counts as functional.
Regarding `O=C1OCC(c2ccccc2)=C1c1ccc(OCC(O)(Cn2cncn2)c2ccc(F)cc2F)cc1` (racemic), the MIC50 stood at 0.5 µg/mL (≈ 1.02 µM).
Still for that read-out and setting: under `COc1ccc(C2=C(c3ccc(OCC(O)(Cn4cncn4)c4ccc(F)cc4F)cc3)C(=O)OC2)cc1` (racemic) stands 1 µg/mL (≈ 1.92 µM); under `Cc1ccc(C2=C(c3ccc(OCC(O)(Cn4cncn4)c4ccc(F)cc4F)cc3)C(=O)OC2)cc1` (racemic), 1 µg/mL (≈ 1.99 µM).
On the same count and under the same terms, then `O=C1OCC(c2ccc(F)cc2)=C1c1ccc(OCC(O)(Cn2cncn2)c2ccc(F)cc2F)cc1` (racemic), with 0.5 µg/mL (≈ 0.985 µM); and `O=C1OCC(c2ccc(F)cc2F)=C1c1ccc(OCC(O)(Cn2cncn2)c2ccc(F)cc2F)cc1` (racemic), with 0.5 µg/mL (≈ 0.952 µM).
The same measure, in the same setting: then `O=C1OCC(c2ccc(Br)cc2)=C1c1ccc(OCC(O)(Cn2cncn2)c2ccc(F)cc2F)cc1` (racemic), with 2 µg/mL (≈ 3.52 µM).
Take `COc1cc(C2=C(c3ccc(Br)cc3)COC2=O)ccc1OCC(O)(Cn1cncn1)c1ccc(F)cc1F` (racemic): the MIC50 was 2 µg/mL (≈ 3.34 µM).
Take `O=Cc1ccc(OCC(O)(Cn2cncn2)c2ccc(F)cc2F)cc1` (racemic): the MIC50 came out at 0.5 µg/mL (≈ 1.39 µM). This MIC50 lies about 4-fold lower than the previous one.

A further assay has as its system Pichia kudriavzevii. Kind of assay: Antifungal activity against Candida krusei ATCC 6258 by broth dilution method. Format: functional.
Take `O=C1OCC(c2ccc(F)cc2)=C1c1ccc(OCC(O)(Cn2cncn2)c2ccc(F)cc2F)cc1` (racemic): the MIC50 came out at 8 µg/mL (≈ 15.8 µM).
Still for that read-out and setting: under `O=C1OCC(c2ccc(F)cc2F)=C1c1ccc(OCC(O)(Cn2cncn2)c2ccc(F)cc2F)cc1` (racemic) stands 8 µg/mL (≈ 15.2 µM); under `O=C1OCC(c2ccc(Br)cc2)=C1c1ccc(OCC(O)(Cn2cncn2)c2ccc(F)cc2F)cc1` (racemic), 8 µg/mL (≈ 14.1 µM).
Same read-out and setting: then `O=Cc1ccc(OCC(O)(Cn2cncn2)c2ccc(F)cc2F)cc1` (racemic), with 16 µg/mL (≈ 44.5 µM).

For a further assay, the system named is Candida tropicalis. Kind of assay: Antifungal activity against Candida tropicalis ATCC 750 by broth dilution method. It counts as functional.
`O=C1OCC(c2ccccc2)=C1c1ccc(OCC(O)(Cn2cncn2)c2ccc(F)cc2F)cc1` (racemic) displayed an MIC50 of 2 µg/mL (≈ 4.09 µM).
Still for that read-out and setting: then `COc1ccc(C2=C(c3ccc(OCC(O)(Cn4cncn4)c4ccc(F)cc4F)cc3)C(=O)OC2)cc1` (racemic), with 4 µg/mL (≈ 7.7 µM); and `Cc1ccc(C2=C(c3ccc(OCC(O)(Cn4cncn4)c4ccc(F)cc4F)cc3)C(=O)OC2)cc1` (racemic), with 2 µg/mL (≈ 3.97 µM).
Still for that read-out and setting: then `O=C1OCC(c2ccc(F)cc2)=C1c1ccc(OCC(O)(Cn2cncn2)c2ccc(F)cc2F)cc1` (racemic), with 1 µg/mL (≈ 1.97 µM); and `O=C1OCC(c2ccc(F)cc2F)=C1c1ccc(OCC(O)(Cn2cncn2)c2ccc(F)cc2F)cc1` (racemic), with 2 µg/mL (≈ 3.81 µM); and `O=C1OCC(c2ccc(Br)cc2)=C1c1ccc(OCC(O)(Cn2cncn2)c2ccc(F)cc2F)cc1` (racemic), with 4 µg/mL (≈ 7.04 µM).
Still for that read-out and setting: under `COc1cc(C2=C(c3ccc(Br)cc3)COC2=O)ccc1OCC(O)(Cn1cncn1)c1ccc(F)cc1F` (racemic) stands 4 µg/mL (≈ 6.68 µM); under `O=Cc1ccc(OCC(O)(Cn2cncn2)c2ccc(F)cc2F)cc1` (racemic), 4 µg/mL (≈ 11.1 µM).

A further assay has as its system Pichia kudriavzevii. Kind of assay: Antifungal activity against Candida krusei ATCC 6258 at 4 ug/ml by broth dilution method. Format: functional, organism-based.
As to `O=C1OCC(c2ccccc2)=C1c1ccc(OCC(O)(Cn2cncn2)c2ccc(F)cc2F)cc1` (racemic), the result was inactive.
Consider `Cc1ccc(C2=C(c3ccc(OCC(O)(Cn4cncn4)c4ccc(F)cc4F)cc3)C(=O)OC2)cc1` (racemic), for which the result was inactive.
The same measure, in the same setting: under `COc1cc(C2=C(c3ccc(Br)cc3)COC2=O)ccc1OCC(O)(Cn1cncn1)c1ccc(F)cc1F` (racemic) stands “inactive”.

The test system of a further assay is Pichia kudriavzevii. The assay is described as follows: Antifungal activity against Candida krusei ATCC 6258 at 8 ug/ml by broth dilution method. Format: functional, organism-based.
Consider `COc1ccc(C2=C(c3ccc(OCC(O)(Cn4cncn4)c4ccc(F)cc4F)cc3)C(=O)OC2)cc1` (racemic), for which the result was inactive.

In a further assay the test system is Cryptococcus neoformans. Kind of assay: Antifungal activity against Cryptococcus neoformans ATCC 34664 by broth dilution method. Format: functional.
The molecule `COc1ccc(C2=C(c3ccc(OCC(O)(Cn4cncn4)c4ccc(F)cc4F)cc3)C(=O)OC2)cc1` (racemic) showed an MIC50 of 2 µg/mL (≈ 3.85 µM).
Regarding `Cc1ccc(C2=C(c3ccc(OCC(O)(Cn4cncn4)c4ccc(F)cc4F)cc3)C(=O)OC2)cc1` (racemic), the MIC50 was 2 µg/mL (≈ 3.97 µM).
For the molecule `O=C1OCC(c2ccc(F)cc2)=C1c1ccc(OCC(O)(Cn2cncn2)c2ccc(F)cc2F)cc1` (racemic), the MIC50 was found to be 1 µg/mL (≈ 1.97 µM). This MIC50 is about 2-fold lower than that of the molecule before.
The same measure, in the same setting: then `O=C1OCC(c2ccc(F)cc2F)=C1c1ccc(OCC(O)(Cn2cncn2)c2ccc(F)cc2F)cc1` (racemic), with 2 µg/mL (≈ 3.81 µM); and `O=C1OCC(c2ccc(Br)cc2)=C1c1ccc(OCC(O)(Cn2cncn2)c2ccc(F)cc2F)cc1` (racemic), with 1 µg/mL (≈ 1.76 µM); and `COc1cc(C2=C(c3ccc(Br)cc3)COC2=O)ccc1OCC(O)(Cn1cncn1)c1ccc(F)cc1F` (racemic), with 8 µg/mL (≈ 13.4 µM).
Consider `O=Cc1ccc(OCC(O)(Cn2cncn2)c2ccc(F)cc2F)cc1` (racemic), for which the MIC50 is 2 µg/mL (≈ 5.57 µM).

Another assay concerns Cryptococcus neoformans. Kind of assay: Antifungal activity against Cryptococcus neoformans ATCC 34664 at 4 ug/ml by broth dilution method. Format: functional, organism-based.
In the case of `O=C1OCC(c2ccccc2)=C1c1ccc(OCC(O)(Cn2cncn2)c2ccc(F)cc2F)cc1` (racemic), the result was inactive.

A further assay deals with Aspergillus niger. Kind of assay: Antifungal activity against Aspergillus niger ATCC 16404 at 128 ug/ml by broth dilution method. Format: functional, organism-based.
`O=Cc1ccc(OCC(O)(Cn2cncn2)c2ccc(F)cc2F)cc1` (racemic): the result was inactive.

The test system of a further assay is Aspergillus niger. The assay is described as follows: Antifungal activity against Aspergillus niger ATCC 16404 at 4 ug/ml by broth dilution method. It counts as functional, organism-based.
On to `O=C1OCC(c2ccccc2)=C1c1ccc(OCC(O)(Cn2cncn2)c2ccc(F)cc2F)cc1` (racemic), for which the outcome was inactive.
The same measure, in the same setting: then `Cc1ccc(C2=C(c3ccc(OCC(O)(Cn4cncn4)c4ccc(F)cc4F)cc3)C(=O)OC2)cc1` (racemic), with “inactive”; and `COc1cc(C2=C(c3ccc(Br)cc3)COC2=O)ccc1OCC(O)(Cn1cncn1)c1ccc(F)cc1F` (racemic), with “inactive”.

In the next assay the test system is Aspergillus niger. Kind of assay: Antifungal activity against Aspergillus niger ATCC 16404 at 8 ug/ml by broth dilution method. Format: functional, organism-based.
Take `COc1ccc(C2=C(c3ccc(OCC(O)(Cn4cncn4)c4ccc(F)cc4F)cc3)C(=O)OC2)cc1` (racemic): the result was inactive.
On the same count and under the same terms, then `O=C1OCC(c2ccc(F)cc2)=C1c1ccc(OCC(O)(Cn2cncn2)c2ccc(F)cc2F)cc1` (racemic), with “inactive”; and `O=C1OCC(c2ccc(F)cc2F)=C1c1ccc(OCC(O)(Cn2cncn2)c2ccc(F)cc2F)cc1` (racemic), with “inactive”; and `O=C1OCC(c2ccc(Br)cc2)=C1c1ccc(OCC(O)(Cn2cncn2)c2ccc(F)cc2F)cc1` (racemic), with “inactive”.

The test system of another assay is Aspergillus fumigatus. Kind of assay: Antifungal activity against Aspergillus fumigatus ATCC 46645 at 128 ug/ml by broth dilution method. Format: functional, organism-based.
On to `O=Cc1ccc(OCC(O)(Cn2cncn2)c2ccc(F)cc2F)cc1` (racemic), for which the outcome was inactive.

The test system of the next assay is Aspergillus fumigatus. The assay is described as follows: Antifungal activity against Aspergillus fumigatus ATCC 46645 at 4 ug/ml by broth dilution method. Format: functional, organism-based.
Take `O=C1OCC(c2ccccc2)=C1c1ccc(OCC(O)(Cn2cncn2)c2ccc(F)cc2F)cc1` (racemic): the outcome was inactive.
Still for that read-out and setting: under `Cc1ccc(C2=C(c3ccc(OCC(O)(Cn4cncn4)c4ccc(F)cc4F)cc3)C(=O)OC2)cc1` (racemic) stands “inactive”; under `COc1cc(C2=C(c3ccc(Br)cc3)COC2=O)ccc1OCC(O)(Cn1cncn1)c1ccc(F)cc1F` (racemic), “inactive”.

In a further assay the test system is Aspergillus fumigatus. The assay is described as follows: Antifungal activity against Aspergillus fumigatus ATCC 46645 at 8 ug/ml by broth dilution method. It counts as functional, organism-based.
`COc1ccc(C2=C(c3ccc(OCC(O)(Cn4cncn4)c4ccc(F)cc4F)cc3)C(=O)OC2)cc1` (racemic): the result was inactive.
Turning to `O=C1OCC(c2ccc(F)cc2)=C1c1ccc(OCC(O)(Cn2cncn2)c2ccc(F)cc2F)cc1` (racemic), the result was inactive.
Same read-out and setting: then `O=C1OCC(c2ccc(F)cc2F)=C1c1ccc(OCC(O)(Cn2cncn2)c2ccc(F)cc2F)cc1` (racemic), with “inactive”.
On the same count and under the same terms, under `O=C1OCC(c2ccc(Br)cc2)=C1c1ccc(OCC(O)(Cn2cncn2)c2ccc(F)cc2F)cc1` (racemic) stands “inactive”.

Another assay relates to Fusarium proliferatum. Kind of assay: Antifungal activity against Fusarium proliferatum ATCC 10052 at 128 ug/ml by broth dilution method. It counts as functional, organism-based.
For `O=Cc1ccc(OCC(O)(Cn2cncn2)c2ccc(F)cc2F)cc1` (racemic), the result was inactive.

A further assay has as its system Fusarium proliferatum. The assay is described as follows: Antifungal activity against Fusarium proliferatum ATCC 10052 at 4 ug/ml by broth dilution method. It counts as functional, organism-based.
For the molecule `O=C1OCC(c2ccccc2)=C1c1ccc(OCC(O)(Cn2cncn2)c2ccc(F)cc2F)cc1` (racemic), the result was inactive.
Same read-out and setting: under `Cc1ccc(C2=C(c3ccc(OCC(O)(Cn4cncn4)c4ccc(F)cc4F)cc3)C(=O)OC2)cc1` (racemic) stands “inactive”; under `COc1cc(C2=C(c3ccc(Br)cc3)COC2=O)ccc1OCC(O)(Cn1cncn1)c1ccc(F)cc1F` (racemic), “inactive”.

A further assay relates to Fusarium proliferatum. Kind of assay: Antifungal activity against Fusarium proliferatum ATCC 10052 at 8 ug/ml by broth dilution method. Format: functional, organism-based.
Consider `COc1ccc(C2=C(c3ccc(OCC(O)(Cn4cncn4)c4ccc(F)cc4F)cc3)C(=O)OC2)cc1` (racemic), for which the outcome was inactive.
As to `O=C1OCC(c2ccc(F)cc2)=C1c1ccc(OCC(O)(Cn2cncn2)c2ccc(F)cc2F)cc1` (racemic), the outcome was inactive.
The same measure, in the same setting: under `O=C1OCC(c2ccc(F)cc2F)=C1c1ccc(OCC(O)(Cn2cncn2)c2ccc(F)cc2F)cc1` (racemic) stands “inactive”; under `O=C1OCC(c2ccc(Br)cc2)=C1c1ccc(OCC(O)(Cn2cncn2)c2ccc(F)cc2F)cc1` (racemic), “inactive”.
